Assay results taken from PubChem BioAssay AID200 (DTP/NCI, 2004).
Values joined by “and” are separate entries in the source; they are usually repeats but may differ in a detail not shown here. Equal entries are not always repeated. Toxic doses and inconclusive results are not listed.

Tested on: B6C3F1 mice, B16 melanoma ip, median survival T/C
Experiment: NCI In Vivo Anticancer Drug Screen. Data for tumor model B16 Melanoma (intraperitoneal) in B6C3F1 mice
Settings: endpoint: median survival time, higher = longer survival
Outline: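 Transplantable tumor in mice; treated vs vehicle control groups; survival or tumor size measured; value = T/C ratio.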

[1] = dose: 12.5 mg/kg/injection, schedule: Q01DX009 (ip), vehicle: saline with Tween-80
[2] = dose: 25.0 mg/kg/injection, schedule: Q01DX009 (ip), vehicle: saline with Tween-80
[3] = dose: 50.0 mg/kg/injection, schedule: Q01DX009 (ip), vehicle: saline with Tween-80
[4] = dose: 100.0 mg/kg/injection, schedule: Q01DX009 (ip), vehicle: saline with Tween-80
[5] = dose: 200.0 mg/kg/injection, schedule: Q01DX009 (ip), vehicle: saline with Tween-80
[6] = dose: 400.0 mg/kg/injection, schedule: Q01DX009 (ip), vehicle: saline with Tween-80
[7] = dose: 25.0 mg/kg/injection, schedule: Q01DX009 (ip), vehicle: saline
[8] = dose: 50.0 mg/kg/injection, schedule: Q01DX009 (ip), vehicle: saline
[9] = dose: 100.0 mg/kg/injection, schedule: Q01DX009 (ip), vehicle: saline

Structure (SMILES): CN=C(N)c1ccc(N=C(N)c2ccc(C(N)=Nc3ccc(C(N)=NC)cc3)cc2)cc1
- T/C (dose: 7.5 mg/kg/injection, schedule: Q01DX009 (ip), vehicle: saline): 95 % of control
- T/C (dose: 15.0 mg/kg/injection, schedule: Q01DX009 (ip), vehicle: saline): 89 % of control

Structure (SMILES): Cc1ccc(S(=O)(=O)NC(=O)OC23COCN2COC3)cc1
- T/C [1]: 112 % of control and 113 % of control
- T/C [2]: 108 % of control and 106 % of control
- T/C [3]: 118 % of control
- T/C [4]: 104 % of control
- T/C [5]: 105 % of control
- T/C [6]: 111 % of control and 122 % of control

Structure (SMILES): CCC/C(=N/NC(N)=O)C(OC)OC
- T/C (dose: 37.5 mg/kg/injection, schedule: Q01DX009 (ip), vehicle: saline): 110 % of control
- T/C (dose: 75.0 mg/kg/injection, schedule: Q01DX009 (ip), vehicle: saline): 98 % of control
- T/C (dose: 150.0 mg/kg/injection, schedule: Q01DX009 (ip), vehicle: saline): 106 % of control

Structure (SMILES): CO[C@@]12[C@@H]3N[C@@H]3CN1C1=C(C(=O)C(NCC3CCCO3)=C(C)C1=O)[C@@H]2COC(N)=O (stereo partly drawn)
- T/C (dose: 1.5 mg/kg/injection, schedule: Q04DX003 (ip), vehicle: distilled water + Tween-80): 179 % of control
- T/C (dose: 3.0 mg/kg/injection, schedule: Q04DX003 (ip), vehicle: distilled water + Tween-80): 172 % of control and 173 % of control and 178 % of control
- T/C (dose: 6.0 mg/kg/injection, schedule: Q04DX003 (ip), vehicle: distilled water + Tween-80): 179 % of control and 207 % of control and 208 % of control
- T/C (dose: 12.0 mg/kg/injection, schedule: Q04DX003 (ip), vehicle: distilled water + Tween-80): 185 % of control and 223 % of control and 240 % of control
- T/C (dose: 24.0 mg/kg/injection, schedule: Q04DX003 (ip), vehicle: distilled water + Tween-80): 174 % of control and 258 % of control and 326 % of control

Structure (SMILES): [N-]=[N+]=CC(=O)CCC(=O)C=[N+]=[N-]
- T/C (dose: 1.56 mg/kg/injection, schedule: Q01DX009 (ip), vehicle: DMSO): 124 % of control

Structure (SMILES): Cc1ccccc1N(C=O)c1ccccc1C
- T/C [4]: 97 % of control
- T/C [5]: 97 % of control
- T/C [6]: 97 % of control

Structure (SMILES): NCCCN=c1ccc2c3c1c(O)c1c(O)ccc(=O)c1c3[nH]n2CCNCCO
- T/C (dose: 2.0 mg/kg/injection, schedule: Q01DX009 (ip), vehicle: water): 188 % of control
- T/C (dose: 4.0 mg/kg/injection, schedule: Q01DX009 (ip), vehicle: water): 263 % of control
- T/C (dose: 8.0 mg/kg/injection, schedule: Q01DX009 (ip), vehicle: water): 165 % of control

Structure (SMILES): O=c1[nH]cnc2c1cnn2CN1CCOCC1
- T/C (dose: 25.0 mg/kg/injection, schedule: Q01DX009 (ip), vehicle: Klucel (hydroxypropylcellulose) (HPC)): 98 % of control and 99 % of control
- T/C (dose: 50.0 mg/kg/injection, schedule: Q01DX009 (ip), vehicle: Klucel (hydroxypropylcellulose) (HPC)): 100 % of control and 102 % of control
- T/C (dose: 100.0 mg/kg/injection, schedule: Q01DX009 (ip), vehicle: Klucel (hydroxypropylcellulose) (HPC)): 123 % of control and 100 % of control
- T/C (dose: 200.0 mg/kg/injection, schedule: Q01DX009 (ip), vehicle: Klucel (hydroxypropylcellulose) (HPC)): 99 % of control

Structure (SMILES): CN(CN1C(=O)CCC1=O)CN1C(=O)CCC1=O
- T/C [7]: 98 % of control
- T/C [8]: 101 % of control
- T/C [9]: 105 % of control
- T/C (dose: 200.0 mg/kg/injection, schedule: Q01DX009 (ip), vehicle: saline): 115 % of control

Structure (SMILES): N=C(N)c1nn(C2OC(CO)C(O)C2O)c2nc[nH]c(=O)c12 (stereo not drawn)
- T/C (dose: 2.25 mg/kg/injection, schedule: Q01DX009 (ip), vehicle: Klucel (hydroxypropylcellulose) (HPC)): 92 % of control and 102 % of control
- T/C (dose: 3.12 mg/kg/injection, schedule: Q01DX009 (ip), vehicle: Klucel + Tween-80): 99 % of control
- T/C (dose: 3.75 mg/kg/injection, schedule: Q01DX009 (ip), vehicle: Klucel (hydroxypropylcellulose) (HPC)): 112 % of control and 101 % of control
- T/C (dose: 6.25 mg/kg/injection, schedule: Q01DX009 (ip), vehicle: Klucel (hydroxypropylcellulose) (HPC)): 112 % of control and 90 % of control
- T/C (dose: 10.42 mg/kg/injection, schedule: Q01DX009 (ip), vehicle: Klucel (hydroxypropylcellulose) (HPC)): 92 % of control
- T/C (dose: 17.36 mg/kg/injection, schedule: Q01DX009 (ip), vehicle: Klucel (hydroxypropylcellulose) (HPC)): 110 % of control and 98 % of control

Structure (SMILES): O=C(/C=C(\Cl)C(=O)NO)NO
- T/C (dose: 6.25 mg/kg/injection, schedule: Q01DX009 (ip), vehicle: saline): 100 % of control and 105 % of control
- T/C (dose: 12.5 mg/kg/injection, schedule: Q01DX009 (ip), vehicle: saline): 91 % of control and 100 % of control
- T/C [7]: 97 % of control and 104 % of control
- T/C [8]: 108 % of control
- T/C [9]: 91 % of control

Structure (SMILES): C/C(=N/NC(N)=S)c1ccc2ccccc2c1
- T/C (dose: 6.25 mg/kg/injection, schedule: Q01DX009 (ip), vehicle: saline with Tween-80): 106 % of control
- T/C [1]: 108 % of control
- T/C [2]: 108 % of control

Structure (SMILES): OC(CN1CCCC2CCCCC21)c1cc2ccccc2c2ccccc12 (stereo not drawn)
- T/C [2]: 100 % of control
- T/C [3]: 100 % of control
- T/C [4]: 96 % of control and 97 % of control
